Measured values from ChEMBL document CHEMBL3638657, “Substituted phenylureas and phenylamides as vanilloid receptor ligands” (2015).

How the values were obtained:
[1] = molecular target: Transient receptor potential cation channel subfamily V member 1 (Rattus norvegicus, UniProt O35433); assay: FLIPR Assay: The agonistic or antagonistic effect of the substances to be tested on the rat-species vanilloid receptor 1 (VR1/TRPV1) can be determined using the following assay. In this assay, the influx of Ca2+ through the receptor channel is quantified with the aid of a Ca2+-sensitive dye (type Fluo-4, Molecular Probes Europe BV, Leiden, the Netherlands) in a fluorescent imaging plate reader (FLIPR, Molecular Devices, Sunnyvale, USA).Method:Complete medium: 50 ml HAMS F12 nutrient mixture (Gibco Invitrogen GmbH, Karlsruhe, Germany) with10% by volume of FCS (foetal calf serum, Gibco Invitrogen GmbH, Karlsruhe, Germany, heat-inactivated);2 mM L-glutamine (Sigma, Munich, Germany);1% by weight of AA solution (antibiotic/antimyotic solution, PAA, Pasching, Austria) and 25 ng/ml NGF medium (2.5 S, Gibco Invitrogen GmbH, Karlsruhe, Germany).
[2] = molecular target: Transient receptor potential cation channel subfamily V member 1 (Homo sapiens, UniProt Q8NER1); assay: FLIPR Assay: The agonistic or antagonistic effect of the substances to be tested on the vanilloid receptor 1 (VR1) can also be determined using the following assay. In this assay, the influx of Ca2+ through the channel is quantified with the aid of a Ca2+-sensitive dye (type Fluo-4, Molecular Probes Europe BV, Leiden, the Netherlands) in a fluorescent imaging plate reader (FLIPR, Molecular Devices, Sunnyvale, USA).Method:Chinese hamster ovary cells (CHO K1 cells, European Collection of Cell Cultures (ECACC) United Kingdom) are stably transfected with the VR1 gene. For functional testing, these cells are plated out on poly-D-lysine-coated black 96-well plates having a clear base (BD Biosciences, Heidelberg, Germany) at a density of 25,000 cells/well. The cells are incubated overnight at 37 C. and 5% CO2 in a culture medium (Ham's F12 nutrient mixture, 10% by volume of FCS (foetal calf serum), 18 ug/ml of L-proline). The next day the cells are incubated with Fluo-4.; assay type: cell-based
Sequence of Transient receptor potential cation channel subfamily V member 1 (Homo sapiens, UniProt Q8NER1) (Q8NER1 whole entry): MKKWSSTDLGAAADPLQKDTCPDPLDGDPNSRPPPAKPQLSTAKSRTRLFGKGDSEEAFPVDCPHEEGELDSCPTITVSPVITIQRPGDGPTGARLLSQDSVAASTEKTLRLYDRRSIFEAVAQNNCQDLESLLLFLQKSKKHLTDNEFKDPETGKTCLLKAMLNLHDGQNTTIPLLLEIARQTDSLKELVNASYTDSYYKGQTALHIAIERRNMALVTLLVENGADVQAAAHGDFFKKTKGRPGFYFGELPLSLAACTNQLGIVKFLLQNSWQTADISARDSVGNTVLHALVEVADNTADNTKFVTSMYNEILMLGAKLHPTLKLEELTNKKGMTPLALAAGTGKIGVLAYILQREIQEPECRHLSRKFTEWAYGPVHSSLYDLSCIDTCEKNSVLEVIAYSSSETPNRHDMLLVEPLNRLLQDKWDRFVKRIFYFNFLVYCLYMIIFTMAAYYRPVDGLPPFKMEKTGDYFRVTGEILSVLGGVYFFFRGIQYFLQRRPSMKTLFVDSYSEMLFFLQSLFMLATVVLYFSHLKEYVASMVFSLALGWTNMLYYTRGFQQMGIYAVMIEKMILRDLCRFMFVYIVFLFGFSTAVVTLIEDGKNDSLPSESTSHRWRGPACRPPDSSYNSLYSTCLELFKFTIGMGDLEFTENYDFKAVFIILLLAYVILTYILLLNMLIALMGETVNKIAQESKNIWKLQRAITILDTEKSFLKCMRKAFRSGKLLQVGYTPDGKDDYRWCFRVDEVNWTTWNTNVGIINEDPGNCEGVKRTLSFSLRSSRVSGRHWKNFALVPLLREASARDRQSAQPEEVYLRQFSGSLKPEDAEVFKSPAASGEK

Sequence of Transient receptor potential cation channel subfamily V member 1 (Rattus norvegicus, UniProt O35433) (O35433 whole entry): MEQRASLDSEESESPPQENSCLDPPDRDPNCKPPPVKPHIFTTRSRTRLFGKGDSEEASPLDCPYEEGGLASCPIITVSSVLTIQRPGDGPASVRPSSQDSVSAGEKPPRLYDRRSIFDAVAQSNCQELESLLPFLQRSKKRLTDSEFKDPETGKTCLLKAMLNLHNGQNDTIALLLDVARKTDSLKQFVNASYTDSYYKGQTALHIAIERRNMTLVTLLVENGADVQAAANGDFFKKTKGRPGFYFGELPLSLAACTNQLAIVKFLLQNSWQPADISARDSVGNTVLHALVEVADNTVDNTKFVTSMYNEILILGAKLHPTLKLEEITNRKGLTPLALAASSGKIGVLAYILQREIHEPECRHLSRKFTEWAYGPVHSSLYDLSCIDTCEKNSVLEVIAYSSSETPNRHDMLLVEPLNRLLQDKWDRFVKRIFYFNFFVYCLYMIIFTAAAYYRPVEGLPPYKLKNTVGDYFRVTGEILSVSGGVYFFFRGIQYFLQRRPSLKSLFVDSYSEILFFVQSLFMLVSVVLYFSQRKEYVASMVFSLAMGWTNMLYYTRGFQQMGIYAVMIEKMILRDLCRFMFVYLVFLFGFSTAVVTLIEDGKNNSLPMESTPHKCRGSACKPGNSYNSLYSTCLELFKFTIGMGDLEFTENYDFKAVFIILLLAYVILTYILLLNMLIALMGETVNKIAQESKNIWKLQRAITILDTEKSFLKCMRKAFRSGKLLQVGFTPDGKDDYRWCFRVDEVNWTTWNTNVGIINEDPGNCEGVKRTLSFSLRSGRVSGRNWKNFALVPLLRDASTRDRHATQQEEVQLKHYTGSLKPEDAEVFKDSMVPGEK

Ki [1]: 5.9 nM
Ki [2]: 8 nM
Compound: Cc1ccc(-n2nc(C(C)(C)C)cc2CNC(=O)C(C)c2ccc(NS(C)(=O)=O)c(F)c2)cc1 (configuration not stated)
